Legend:
Test in all cases: relative viability (nuclei count vs DMSO), 5 days (fraction); higher = more cells survive
SGI-1776 + Decitabine = compound: CN1CCC(CNc2ccc3ncc(-c4cccc(OC(F)(F)F)c4)n3n2)CC1 [SGI-1776] + Nc1ncn([C@H]2C[C@H](O)[C@@H](CO)O2)c(=O)n1 [Decitabine] (partner 2 µM)
Procedure, shortened: (§1)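 Lung cancer cell lines in 1536-well plates got either a single drug or a fixed anchor-drug dose together with five library-drug doses (not always all listed) in √10 steps, by pin tool, on the day after seeding. Nuclei were counted after 5 days, and relative viability is the treated-to-vehicle ratio of nuclei counts. Values are medians of duplicate plates.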

Entinostat + Luminespib = compound: Nc1ccccc1NC(=O)c1ccc(CNC(=O)OCc2cccnc2)cc1 [Entinostat] + CCNC(=O)c1noc(-c2cc(C(C)C)c(O)cc2O)c1-c1ccc(CN2CCOCC2)cc1 [Luminespib] (partner 0.01 µM)
Procedure, shortened: as §1

[1] = compound: C1COCCN1C2=NC(=NC3=C2OC4=C3C=CC=N4)C5=CC(=CC=C5)NC(=O)C6=CN=C(C=C6)N + CC(C)C[C@H](NC(=O)[C@H](Cc1ccccc1)NC(=O)c1cnccn1)B(O)O [Bortezomib] (partner 0.002 µM)
Procedure, shortened: as §1

[2] = compound: C1COCCN1C2=NC(=NC3=C2OC4=C3C=CC=N4)C5=CC(=CC=C5)NC(=O)C6=CN=C(C=C6)N + C[C@@H](Oc1cc(-c2cnn(C3CCNCC3)c2)cnc1N)c1c(Cl)ccc(F)c1Cl [Crizotinib] (partner 1 µM)
Procedure, shortened: as §1

Row | Cell Line | relative viability (SGI-1776 + Decitabine; first compound 0.08 µM) | relative viability (SGI-1776 + Decitabine; first compound 0.8 µM) | relative viability (SGI-1776 + Decitabine; first compound 2.53 µM) | relative viability (SGI-1776 + Decitabine; first compound 8 µM) | relative viability (Entinostat + Luminespib; first compound 0.02 µM) | relative viability (Entinostat + Luminespib; first compound 0.06325 µM) | relative viability (Entinostat + Luminespib; first compound 0.2 µM) | relative viability (Entinostat + Luminespib; first compound 0.6325 µM) | relative viability (Entinostat + Luminespib; first compound 2 µM) | relative viability ([1]; first compound 0.02 µM) | relative viability ([1]; first compound 0.06325 µM) | relative viability ([1]; first compound 0.2 µM) | relative viability ([1]; first compound 0.6325 µM) | relative viability ([1]; first compound 2 µM) | relative viability ([2]; first compound 0.02 µM) | relative viability ([2]; first compound 0.06325 µM) | relative viability ([2]; first compound 0.2 µM) | relative viability ([2]; first compound 0.6325 µM) | relative viability ([2]; first compound 2 µM)
1 | NCI-H647 | 0.409 | 0.392 | 0.44 | 0.339 | 0.223 | 0.182 | 0.23 | 0.177 | 0.133 | 1.02 | 1.47 | 0.983 | 0.862 | 0.402 | 1.16 | 1.17 | 0.943 | 1.09 | 0.283
2 | HCC-15 | 0.593 | 0.692 | 0.593 | 0.414 | 0.352 | 0.301 | 0.261 | 0.359 | 0.257 | 1.03 | 1.04 | 0.994 | 1.05 | 0.677 | 0.824 | 0.938 | 0.843 | 0.819 | 0.545
3 | NCI-H838 | 0.46 | 0.45 | 0.435 | 0.437 | 0.291 | 0.257 | 0.291 | 0.196 | 0.201 | 0.708 | 0.872 | 0.564 | 0.659 | 0.469 | 0.901 | 0.809 | 0.674 | 0.722 | 0.439
4 | HOP-62 | 0.214 | 0.221 | 0.214 | 0.242 | 0.944 | 0.818 | 0.824 | 0.71 | 0.431 | 0.743 | 0.848 | 0.897 | 0.967 | 0.291 | 1.08 | 1.14 | 0.714 | 0.695 | 0.65
5 | NCI-H322M | 0.724 | 0.753 | 0.65 | 0.658 | 0.909 | 1.13 | 1.06 | 1.1 | 1.03 | 1.2 | 1.25 | 1.25 | 1.24 | 0.965 | 0.854 | 0.991 | 0.879 | 0.934 | 0.657
6 | NCI-H650 | 0.337 | 0.32 | 0.341 | 0.313 | 0.824 | 0.76 | 0.829 | 0.672 | 0.427 | 0.773 | 0.906 | 0.75 | 0.909 | 0.529 | 0.654 | 0.713 | 0.798 | 0.755 | 0.559
7 | NCI-H661 | 0.572 | 0.606 | 0.501 | 0.471 | 0.838 | 0.868 | 0.834 | 0.642 | 0.493 | 0.772 | 0.747 | 0.741 | 0.657 | 0.63 | 1.16 | 1.27 | 0.971 | 1.12 | 0.932
8 | NCI-H1734 | 0.517 | 0.499 | 0.567 | 0.486 | 0.227 | 0.204 | 0.185 | 0.213 | 0.181 | 1.15 | 1.02 | 0.835 | 0.801 | 0.462 | 0.73 | 0.731 | 0.612 | 0.636 | 0.345
9 | EKVX | 0.291 | 0.397 | 0.355 | 0.305 | 0.986 | 0.913 | 0.794 | 0.801 | 0.427 | 1.09 | 1.19 | 1.02 | 1.11 | 0.585 | 1.06 | 0.985 | 1.03 | 1.03 | 0.62

Reference: the supplement of paper PMC10307832
